Patent EP0619297B1, “Fungicides for the control of take-all desease of plants” (MONSANTO COMPANY, priority 1993, dated 1994)
Converted amounts (≈) assume the structure as drawn. Read-outs that look alike come from different tables or passages of the source.

Columns and labels:
[1] = tested on: Gaeumannomyces graminis var. tritici (Ggt); assay: In vitro assay: mycelial growth on minimal media agar plates (Percent Inhibition; IC50); assay type: cell-based; details: for inhibition at 0.1 ppm: read-out: In vitro(ppm) 0.1, Percent Inhibition; for inhibition at 1 ppm: read-out: In vitro(ppm) 1, Percent Inhibition; for inhibition at 10 ppm: read-out: In vitro(ppm) 10, Percent Inhibition; for IC50: interpolated from percent inhibition at 1, 0.1, 0.01, 0.001 and 0.0001 ppm
Method: The test compounds (0.25 mL of an appropriate stock solution in acetone) are incorporated into 25 mL minimal media agar [prepared by autoclaving a solution of 17.5 g Czapek Dox broth (Difco), 7.5 g purified agar or Bacto-agar (Difco), and 500 mL distilled/deionized water, and then adding 50 µL of 1 mg/mL thiamine hydrochloride and 50 µL of 1 mg/mL biotin in 5% ethanol] and plates are prepared.
Each plate is inoculated by placing in a triangular shape three 4-mm plugs of Gaeumannomyces graminis var. tritici (Ggt) grown on the minimal media agar described above. The plates are incubated in the dark at 19 - 20 °C for 4 to 5 days. The growth of the fungus is measured as the diameter of the mycelial growth. The result is expressed as Percent Inhibition, calculated as [1 - [(mm growth on treated plate - 4)/(mm growth on control plate - 4)]] x 100.
To determine IC5O values, an in vitro assay was run on each compound at the concentrations of 1, 0.1, 0.01, 0.001, and 0.0001 ppm. The percent inhibition was calculated for each concentration using the equation described in the in vitro assay under the section on Biological Assays. Using the two ordered pairs of (concentration, % inhibition) that bracket 50% inhibition of fungal growth, the concentration for 50% inhibition is calculated from the following equation. IC50 = [(50-I2 )C1 + (I1 -50)C2 ]/(I1 -I2 ), [formula] where C1 = 10C2.

[2] = tested on: Ggt; assay: In vivo assay: control of Ggt on wheat in 3-inch pots with infested soil, rated after four weeks;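 for In vivo(ppm) 0.1, percent disease control: rate is mg active ingredient per pot in 3 mL solution not ppm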;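 for In vivo(ppm) 0.5, percent disease control: rate is mg active ingredient per pot in 3 mL solution not ppm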; set-up: species or system Gaeumannomyces graminis var. tritici; details: Gaeumannomyces graminis, 672 h; for pest or weed control at 0.02 mg/pot: read-out: In vivo(ppm) 0.02mg/pot, percent disease control; for pest or weed control at 0.1 mg/pot: read-out: In vivo(ppm) 0.1, percent disease control; for pest or weed control at 0.5 mg/pot: read-out: In vivo(ppm) 0.5, percent disease control
Method: Compounds are tested for control of Ggt on 'Bergen' or 'Anza' varieties of wheat grown in 3-inch square pots containing soil infested with Ggt. The infestation is accomplished by mixing the soil with an inoculum prepared by growing Ggt on 1/4 strength potato dextrose agar (4.875 g potato dextrose agar, 5.0 g Bacto agar, 500 mL distilled, deionized water) in plates and using plugs from the plates to infest sterile oats (400 cc whole oats, 350 mL deionized water, autoclaved). After a one-month incubation period at room temperature, the oats are dried and mixed with the soil at 4% v/v. Four wheat seeds are placed on top of the soil in each pot. […] Five pots are used for each treatment level and the controls, which are untreated, inoculated and non-inoculated pots. After one hour drying time, the seeds are covered with more of the appropriate soil and a layer of vermiculite. The pots are placed in a growth chamber and watered each day. After four weeks, each pot is evaluated for evidence of disease by examination of the seminal roots of each plant under a dissecting microscope. A 0 to 5 rating scale having the following meanings is used: • 0 = no runner hyphae or lesions present • 1 = runner hyphae and a few small lesions present on <10% of root system • 2 = runner hyphae and small lesions present on 10 - 25% of root system • 3 = runner hyphae and lesions present on 25 - 50% of root system • 4 = runner hyphae and many, large, coalescing lesions on >50% of root system • 5 = root system and culm completely inundated with lesions and runner hyphae
From each set of five replicates a high or low score may be eliminated to assure the best representative scores are used to calculate a replicate mean by averaging the remaining scores. This mean score is then compared to the untreated control score and a percent disease control is calculated.

[3] = 0.1 ppm in agar, 19 - 20 °C, 4 to 5 days
[4] = 1 ppm in agar, 19 - 20 °C, 4 to 5 days
[5] = 10 ppm in agar, 19 - 20 °C, 4 to 5 days
[6] = rate 0.02mg/pot, wheat, soil infested with Ggt, after four weeks
[7] = rate 0.1 (head prints ppm, head line ends mg/pot), wheat, soil infested with Ggt, after four weeks, N = no control
[8] = rate 0.5 (head prints ppm, head line ends mg/pot), wheat, soil infested with Ggt, after four weeks, N = no control

| Compound | inhibition at 0.1 ppm [1] [%] | inhibition at 1 ppm [1] [%] | inhibition at 10 ppm [1] [%] | pest or weed control at 0.02 mg/pot ([2]; soil) [%] | pest or weed control at 0.1 mg/pot ([2]; soil) [%] | pest or weed control at 0.5 mg/pot ([2]; soil) [%] | inhibition at 0.1 ppm [1, 3] [%] | inhibition at 1 ppm [1, 4] [%] | inhibition at 10 ppm [1, 5] [%] | IC50 [1] [ng/mL] | pest or weed control at 0.02 mg/pot [2, 6] [%] | pest or weed control at 0.1 mg/pot [2, 7] [%] | pest or weed control at 0.5 mg/pot [2, 8] [%] |
| --- | --- | --- | --- | --- | --- | --- | --- | --- | --- | --- | --- | --- | --- |
| CCC(C)(C)Nc1ccc2ccccc2c1C(=O)NCCBr [Example 19, N-(2-bromoethyl) 2-[(1,1-dimethylpropyl)amino]-1-naphthamide] | 68 | 93 | 98 | 0 | 0 | 22 | – | – | – | – | – | – | – |
| CCNC(=O)c1c(NC(C)(C)C)ccc2ccccc12 [Example 20, N-ethyl 2-[(1,1-dimethylethyl)amino]-1-naphthamide] | – | – | – | – | – | – | 80 | 98 | 100 | 71.6 (≈ 0.265 µM) | 5 | 24 | 61 |
| CCCNC(=O)c1c(NC(C)(C)C)ccc2ccccc12 [Example 21, N-propyl 2-[(1,1-dimethylethyl)amino]-1-naphthamide] | – | – | – | – | – | – | 95 | 97 | 97 | 8.5 (≈ 0.0299 µM) | 35 | 60 | 78 |
| CCNC(=O)c1c(NC(C)(C)CC)ccc2ccccc12 [Example 22, N-ethyl 2-[(1,1-dimethylpropyl)amino]-1-naphthamide] | – | – | – | – | – | – | 95 | 98 | 98 | 9.18 (≈ 0.0323 µM) | 11 | 41 | 70 |
| CCNC(=O)c1c(NC(C)(CC)CC)ccc2ccccc12 [Example 23, N-ethyl 2-[(1,1-diethylethyl)amino]-1-naphthamide] | – | – | – | – | – | – | 21 | 21 | 43 | 6.62 (≈ 0.0222 µM) | 50 | 65 | 85 |
| CCCNC(=O)c1c(NC(C)(CC)CC)ccc2ccccc12 [Example 24, N-propyl 2-[(1,1-diethylethyl)amino]-1-naphthamide] | – | – | – | – | – | – | 95 | 95 | 100 | 0.814 (≈ 0.00261 µM) | 32 | 38 | 76 |
| CCCNC(=O)c1c(NC(C)(C)CC)ccc2ccccc12 [Example 25, N-propyl 2-[(1,1-dimethylpropyl)amino]-1-naphthamide] | – | – | – | – | – | – | 95 | 100 | 100 | 1 (≈ 0.00335 µM) | 17 | 57 | 78 |
| CCNC(=O)c1c(OC(C)(CC)CC)ccc2ccccc12 [Example 28, N-ethyl 2-[(1,1-diethylethyl)oxy]-1-naphthamide] | – | – | – | – | – | – | 74 | 96 | 96 | – | 19 | 40 | 78 |
| CCCNC(=O)c1c(OC(C)(CC)CC)ccc2ccccc12 [Example 31, N-propyl 2-[(1,1-diethylethyl)oxy]-1-naphthamide] | – | – | – | – | – | – | 7 | 17 | 98 | – | 0 | 0 | 3 |
| CCNC(=O)c1c(OC(CC)(CC)CC)ccc2ccccc12 [Example 32, N-ethyl 2-[(1,1-diethylpropyl)oxy]-1-naphthamide] | – | – | – | – | – | – | 87 | 97 | 97 | 42.2 (≈ 0.135 µM) | 15 | 35 | 58 |
| C=CCNC(=O)c1c(OC(CC)(CC)CC)ccc2ccccc12 [Example 33, N-allyl 2-[(1,1-diethylpropyl)oxy]-1-naphthamide] | – | – | – | – | – | – | 97 | 100 | 100 | 6.47 (≈ 0.0199 µM) | 19 | 45 | 59 |
| CCCN(CCC)C(=O)c1c(OC(CC)(CC)CC)ccc2ccccc12 [Example 35, N,N-dipropyl 2-[(1,1-diethylpropyl)oxy]-1-naphthamide] | – | – | – | – | – | – | 0 | 19 | 95 | – | 0 | 0 | 1 |
| CCNC(=O)c1c(OC2(C)CCCC2)ccc2ccccc12 [Example 36, N-ethyl 2-[(1-methyl-1-cyclopentyl)oxy]-1-naphthamide] | – | – | – | – | – | – | 76 | 98 | 100 | – | 0 | 0 | 60 |
| C=CCNC(=O)c1c(OC2(C)CCCCC2)ccc2ccccc12 [Example 39, N-allyl 2-[(1-methyl-1-cyclohexyl)oxy]-1-naphthamide] | – | – | – | – | – | – | 57 | 96 | 96 | – | 0 | 11 | 28 |
| CCNC(=O)c1c([Si](C)(C)C)ccc2sccc12 [Example 41, N-ethyl 5-trimethylsilyl benzothiophene-4-carboxamide] | 98 | 98 | 100 | 75 | 99 | 100 | – | – | – | – | – | – | – |
